Measured values: patent US8535942B2, “Glypican-3 (GPC3)-derived tumor rejection antigenic peptides useful for HLA-A2-positive patients and pharmaceutical comprising the same” (Oncotherapy Science, Inc., priority 2005, dated 2013)
“Also recorded” adds a separate entry of the source. No end group written: not given here.

Tested on: SK-Hep-1/GPC3 cells
Experiment: Cytotoxicity test of peptide-induced killer T cells (calcein AM, Terascan VP)
Assay type: cell-based, human
Settings: killer T cells induced with peptide-loaded dendritic cells; targets SK-Hep-1/GPC3 vs SK-Hep-1; E/T ratio 20:1
Method: Informed consent was obtained from HLA-A2-positive hepatocellular carcinoma patients, who were in therapy at Gastroenterological Surgery, Kumamoto University School of Medicine, and at Hospital East, the National Cancer Center. Thereafter, 30 ml of blood sample was obtained from individual patients, and peripheral blood mononuclear cells were then isolated using Ficoll-Conray density-gradient centrifugation method according to the previously reported method (Nakatsura, T et al., Eur. J. Immunol. 32, 826-836 (2002)).
From the isolated peripheral blood mononuclear cells, killer T cells were induced by the previously reported method (Monji, M et al., Clin Cancer Res 10, 6047-6057, 2004). First, CD8-positive cells and CD14-positive cells were separated from the peripheral blood mononuclear cells using MACS. The CD14-positive cells were cultured in the presence of GM-CSF (100 ng/ml) and IL-4 (20 ng/ml) for 5 days, so that differentiation of dendritic cells was induced. Thereafter, TNF-α (20 ng/ml) was added thereto for maturation. On the 7th day, each GPC3 peptide (10 μM) was added thereto, and co-culture with CD8-positive cells was then carried out. This antigen stimulation with autologous CD14-positive cell-derived dendritic cells was repeated 3 or 4 times every week, so that peptide-specific killer T cells were induced. During the induction, half a medium was exchanged with a fresh one every two days, and IL-2 was added thereto in a concentration of 10 U/ml.
The cytotoxic activity of killer T cells was evaluated by a cytotoxic test using Terascan VP. First, target cells were fluorescently labeled with a calcein AM staining solution at 37° C. for 30 minutes. Such cells were co-cultured with killer T cells on a Coster 96-well half area plate, and fluorescently labeled cells were then detected over time, thereby measuring the degree of cytotoxicity. The analysis was carried out using cytotoxicity test computing software CalCT-961 of MINERVA TECH, which was used in a fluorescence method. An experiment was carried out at an E/T ratio of 20:1. […]

RLQPGLKWV [GPC3 44-52, RLQPGLKWV]
GPC3-specific cytotoxic activity: confirmed; also recorded: exhibited strong cytotoxic activity

YILGSDINV [GPC3 155-163, YILGSDINV]
GPC3-specific cytotoxic activity: confirmed; also recorded: exhibited strong cytotoxic activity

FVGEFFTDV [GPC3 144-152, FVGEFFTDV]
GPC3-specific cytotoxic activity: confirmed; also recorded: exhibited strong cytotoxic activity
